In patent US8431541B2, “Alpha-amylase inhibitors: the montbretins and uses thereof” (The University of British Columbia, priority 2007, dated 2013):

What was measured:
[1] = molecular target: T1, human pancreatic α-amylase (HPA) (Homo sapiens, UniProt P04746); experiment: Kinetic analysis of HPA inhibition; assay type: biochemical
T1 sequence (P04746 16-511): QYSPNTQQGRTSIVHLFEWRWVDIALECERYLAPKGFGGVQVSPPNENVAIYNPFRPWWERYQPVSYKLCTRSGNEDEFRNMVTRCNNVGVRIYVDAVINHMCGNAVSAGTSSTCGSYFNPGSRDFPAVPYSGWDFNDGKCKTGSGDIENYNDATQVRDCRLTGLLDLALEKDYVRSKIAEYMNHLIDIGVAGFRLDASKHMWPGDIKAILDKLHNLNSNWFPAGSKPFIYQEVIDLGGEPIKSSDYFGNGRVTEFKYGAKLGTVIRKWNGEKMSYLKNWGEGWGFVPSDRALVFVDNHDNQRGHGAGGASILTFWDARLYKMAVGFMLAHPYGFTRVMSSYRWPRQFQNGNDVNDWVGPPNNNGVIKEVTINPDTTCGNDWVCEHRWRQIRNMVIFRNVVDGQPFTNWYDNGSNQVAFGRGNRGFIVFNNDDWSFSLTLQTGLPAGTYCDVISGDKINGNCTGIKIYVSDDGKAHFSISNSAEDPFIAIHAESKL

α-amylase (HPA) = molecular target: T2, α-amylase (HPA) (Homo sapiens, UniProt P04746); experiment: Glycosidase specificity: α-amylase; assay type: biochemical; conditions: at 0.1 μM Montbretin A; read-out: RA (%), Residual Enzyme Activity
T2 sequence (P04746 16-511): T1 sequence (P04746 16-511)

[2] = molecular target: T3, β-glucosidase (Agrobacterium sp.) (Agrobacterium sp., UniProt P12614); experiment: Glycosidase specificity: β-glucosidase; assay type: biochemical
T3 sequence (P12614 1-459): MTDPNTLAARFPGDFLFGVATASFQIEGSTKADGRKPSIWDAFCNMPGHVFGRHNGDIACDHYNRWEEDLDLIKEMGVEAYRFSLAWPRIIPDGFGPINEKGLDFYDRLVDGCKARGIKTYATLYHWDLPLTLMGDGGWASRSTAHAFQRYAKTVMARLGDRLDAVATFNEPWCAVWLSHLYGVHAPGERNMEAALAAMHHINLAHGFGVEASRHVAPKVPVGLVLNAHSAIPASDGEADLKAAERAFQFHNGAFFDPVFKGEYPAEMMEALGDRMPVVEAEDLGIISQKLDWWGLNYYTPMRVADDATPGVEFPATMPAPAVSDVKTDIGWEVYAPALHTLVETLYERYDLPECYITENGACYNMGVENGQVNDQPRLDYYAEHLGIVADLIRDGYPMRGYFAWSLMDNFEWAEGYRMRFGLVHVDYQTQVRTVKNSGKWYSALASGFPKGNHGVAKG
Text: The subsequent residue of montbretin A is also a β-linked glucose residue, however this residue bears a large 6-O-caffeic ester moiety and would therefore not be processed by Abg. […] Thus, the terminal glucosyl residue on the trisaccharide moiety is not required for α-amylase activity.

[3] = molecular target: β-galactosidase (E. coli) (Escherichia coli, UniProt P00722); experiment: Glycosidase specificity: β-galactosidase; assay type: biochemical; conditions: at 0.1 μM Montbretin A; read-out: RA (%), Residual Enzyme Activity
Chain of β-galactosidase (E. coli) (P00722 2-1024 limits assumed): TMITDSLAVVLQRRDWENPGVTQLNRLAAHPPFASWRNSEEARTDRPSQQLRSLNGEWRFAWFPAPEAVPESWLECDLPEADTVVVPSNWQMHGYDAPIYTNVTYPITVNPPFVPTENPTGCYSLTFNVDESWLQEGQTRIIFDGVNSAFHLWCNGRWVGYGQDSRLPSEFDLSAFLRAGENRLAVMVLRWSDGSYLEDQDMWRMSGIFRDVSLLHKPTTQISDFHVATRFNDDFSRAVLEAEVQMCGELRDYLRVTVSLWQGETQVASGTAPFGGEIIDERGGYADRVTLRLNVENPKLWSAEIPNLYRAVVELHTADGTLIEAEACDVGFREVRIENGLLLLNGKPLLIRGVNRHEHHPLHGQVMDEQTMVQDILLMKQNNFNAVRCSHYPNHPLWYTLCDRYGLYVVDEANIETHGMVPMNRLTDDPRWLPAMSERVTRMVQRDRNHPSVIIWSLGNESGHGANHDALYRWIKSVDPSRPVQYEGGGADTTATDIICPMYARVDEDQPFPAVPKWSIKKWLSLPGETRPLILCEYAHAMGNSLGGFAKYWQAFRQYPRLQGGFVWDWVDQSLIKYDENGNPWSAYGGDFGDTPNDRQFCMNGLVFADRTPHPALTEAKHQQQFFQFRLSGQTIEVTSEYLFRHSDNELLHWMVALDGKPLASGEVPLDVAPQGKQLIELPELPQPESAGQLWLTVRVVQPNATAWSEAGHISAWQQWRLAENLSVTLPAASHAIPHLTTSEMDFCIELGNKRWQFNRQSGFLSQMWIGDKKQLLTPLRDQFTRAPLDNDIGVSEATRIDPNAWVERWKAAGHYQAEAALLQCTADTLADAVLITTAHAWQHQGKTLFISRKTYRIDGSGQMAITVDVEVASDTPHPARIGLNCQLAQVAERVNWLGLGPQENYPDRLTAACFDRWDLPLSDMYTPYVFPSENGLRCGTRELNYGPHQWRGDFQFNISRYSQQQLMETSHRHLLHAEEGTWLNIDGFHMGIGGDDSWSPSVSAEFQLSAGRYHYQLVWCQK

[4] = molecular target: α-galactosidase (Green Coffee Beans) (Coffea arabica, UniProt Q42656); experiment: Glycosidase specificity: α-galactosidase; assay type: biochemical; conditions: at 0.1 μM Montbretin A; read-out: RA (%), Residual Enzyme Activity
Chain of α-galactosidase (Green Coffee Beans) (Q42656 16-378): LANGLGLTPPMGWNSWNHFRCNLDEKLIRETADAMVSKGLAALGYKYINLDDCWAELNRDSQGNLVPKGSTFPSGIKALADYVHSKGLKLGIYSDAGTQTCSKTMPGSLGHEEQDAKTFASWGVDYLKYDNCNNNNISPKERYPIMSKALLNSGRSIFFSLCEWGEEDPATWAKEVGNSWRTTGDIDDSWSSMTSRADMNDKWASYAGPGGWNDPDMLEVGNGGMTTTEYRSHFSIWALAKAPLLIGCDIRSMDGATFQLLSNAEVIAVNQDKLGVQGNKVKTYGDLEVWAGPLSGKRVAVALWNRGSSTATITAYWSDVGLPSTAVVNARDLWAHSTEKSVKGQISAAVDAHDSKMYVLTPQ

[5] = test system: α-glucosidase (Brewers Yeast); experiment: Glycosidase specificity: α-glucosidase; assay type: biochemical; conditions: at 0.1 μM Montbretin A
[6] = test system: control and STZ-diabetic rats; experiment: Acute starch tolerance test; assay type: in vivo, rat
Experimental: Twenty-four animals were obtained at 200-250 g of body weight and randomly divided into control and diabetic groups. Diabetes was induced by a single intravenous tail vein injection of streptozotocin 60 mg/kg in 0.9% normal saline. Control rats received normal saline injections only. Animals were subsequently divided into acarbose untreated and treated. […] Starch was obtained from Fisher Scientific and a 17.5% suspension was made in distilled water. The dose of starch given was […].
The animals were fasted overnight. A basal blood sample was collected (50 μl volume) and then at 30, 60, 90 and 120 minutes post drug administration. Starch and starch+acarbose was administered by oral gavage. Blood was centrifuged at 10,000 g×25 minutes and plasma collected for determination of glucose levels using a Beckman Glucose Analyzer II™. There was no difference in body weight among the groups. There was a significant increase in plasma glucose 30 and 60 minutes following starch administration in the diabetic untreated group only.
The twenty-four animals from Example 6 were used following a wash out period of one week. Animals were divided into montbretin A untreated and treated. The four treatment groups were: control, n=6, control+montbretin A, n=6, diabetic, n=6 and diabetic+montbretin A, n=6. The procedures used in Example 6 were employed. Montbretin A was dissolved in distilled water at a concentration of 10 mg/ml and given at a volume of 1 ml/kg. The dose of montbretin A given was 10 mg/kg. There was no difference in body weight among the groups. There was a significant increase in plasma glucose levels in the diabetic untreated group at 30 and 60 minutes following starch administration.
A study was done to determine the effect of various amounts of montbretin A and montbretin extracts on plasma glucose levels in response to a starch challenge in STZ-diabetic rats. Diabetic animals used in the previous Examples were used following a wash out period of one week. The six experimental groups were: diabetic (D, n=3) diabetic+montbretin A (5 mg/kg), (DT5, n=3), diabetic+montbretin A (1 mg/kg), (DT1, n=3), diabetic+montbretin A (0.5 mg/kg), (DT0.5, n=3), diabetic+Crocosmia corm methanol extract (5 mg/kg), (DM, n=3) and diabetic+Crocosmia corm ethanol extract (5 mg/kg), (DE, n=2).
Montbretin A was dissolved in distilled water at a concentration of 5, 1 or 0.5 mg/ml and given at a volume of 1 ml/kg. The methanol extract contained montbretin A at a concentration of 3.2 mg/ml and ethanol extract at a concentration of 1.6 mg/ml. These extracts were dried and resuspended in distilled water. There was no difference in body weight among the groups. […] Diarrhea occurred in 2 out 3 animals given the methanol extract and in 1 out of 2 animals given the ethanol extract. […]

## CC1O[C@@H](O[C@@H]2CO[C@@H](Oc3c(O)cc(-c4oc5cc(O)cc(O)c5c(=O)c4O[C@@H]4OC(C)[C@H](O)[C@H](O)C4O[C@@H]4OC(COC(=O)/C=C/c5ccc(O)c(O)c5)[C@@H](O)[C@@H](O)C4O[C@@H]4OC(CO)[C@@H](O)[C@@H](O)C4O)cc3O)C(O)[C@@H]2O)C(O)[C@@H](O)[C@H]1O (some centres unmarked) [Montbretin A, montbretin A]
[1]; double reciprocal plot
  mode of inhibition of HPA: competitive
[1]; presence of 1 mM calcium chloride
  effect of calcium on HPA inhibition: no change in inhibition
[1]; presence vs absence of 5 mM dithiothreitol
  effect of DTT on HPA inhibition: No effect
[1]; varied substrate and inhibitor concentrations, GraFit
  Ki: 8.1 ± 0.5 nM
α-amylase (HPA)
  remaining activity at 0.1 µM: 11%
[2]; at 0.1 μM Montbretin A, read-out: RA (%), Residual Enzyme Activity
  remaining activity at 0.1 µM: 100%
[2]; extent of inhibition decreasing with time
  inhibition of β-glucosidase from Agrobacterium (Abg): time dependent inhibition
[2]; pre-incubation with Abg prior to addition of assay substrate
  inhibition of Abg after pre-incubation: no inhibition
[3]
  remaining activity at 0.1 µM: 98%
[4]
  remaining activity at 0.1 µM: 100%
[5]
  RA (%), Residual Enzyme Activity: 97%
[6]; 5 mg/kg, acute, STZ-diabetic rats
  increase in plasma glucose following starch administration: prevented the increase in plasma glucose
[6]; 10 mg/kg, oral gavage, acute, control and STZ-diabetic rats
  increase in plasma glucose following a starch challenge: effective in preventing the increase in plasma glucose
[6]; lower doses (1 mg/kg, 0.5 mg/kg), STZ-diabetic rats
  effect on plasma glucose, area under the curve: not particularly significant
